The values that follow come from US20120189579A1 (priority 2009, published 2012).

Data set [1] concerns the target T1, HCV NS5BΔ21/Gal4-DBD fusion protein (Hepatitis C virus genotype 1b, UniProt Q9WMX2).
T1 construct: The protein was expressed with a 21 amino acid C-terminal deletion to remove transmembrane domain; expressed in transfected cells; host or cells: Huh-7 (transient transfection)
As to the kind of experiment: 3D-SCREEN assay (NS5B reporter gene assay in Huh-7 cells). It is filed as cell-based, HCV genotype 1b. The procedure: (§1) Human Hepatoma Huh-7 cell line was maintained in DMEM/HAMF-12 supplemented with 10% SVF, 4 mM glutamine, […] Na pyruvate, 1% penistreptomycine. HCV replicon containing Huh-7 cell lines Huh-9.13 and Luc Neo ET (Reblikon) were maintained in DMEM supplemented with 10% SVF, 2 mM glutamine, and 1×NEAA, 100 U/ml penicillin, and 100 μg/ml streptomycine. Replicon cells were maintained in medium supplemented with 1 mg/ml G418 for replicon Huh-9.13 and 0.5 mg/ml for Luc Neo et replicon unless indicated otherwise. Huh-7 and HCV replicon cell lines were maintained at 37° C. and 5% CO2 in a humidified atmosphere. Cells were dissociated at sub confluence with trypsin EDTA 1×.
cDNA encoding HCV NS5B genotype 1b, was cloned in frame with Gal4-DNA Binding Domain. The protein was expressed with a 21 amino acid C-terminal deletion to remove transmembrane domain. Expression of NS5BΔ21/Gal4 DBD fusion protein was under control of SV40 early promoter. 3D-Sensor peptide was cloned in frame with VP16 activation domain. Expression of 3D-Sensor/VP16 AD fusion protein was under control of CMV promoter. Expression of the firefly luciferase reporter gene was inducible by the [Target protein/conformation sensitive peptide/VP16AD] complex.
It is a single-target, cell based assay. Briefly, expression of a reporter gene depends on the interaction of a short peptide, thereafter named 3D-Sensor, and native conformation of the target protein. Whenever the conformation of the target protein is modified, interaction between 3D-sensor and target protein is disrupted and reporter gene is not expressed anymore. Conformation modifiers are identified by loss of expression of reporter gene. NS5B 3D-Screen platform was generated in Huh-7 cell lines by transient transfection of three expression vectors encoding respectively • (i) HCV NS5BΔ21/Gal4-DBD fusion protein • (ii) the 3D-sensor peptide 14/VP16 fusion protein • (iii) the firefly luciferase reporter gene
Huh-7 cells were dissociated the day before transfection and seeded in T175 flasks at a density of 10^7 cells in 30 ml culture medium. Equimolar ratios of vectors were transfected in cell according to optimized jetPEI transfection protocol (PolyPlus Transfection, Illkirch, France) and 10 μg total DNA/10^6 cells. Transfection was performed for 2 hours at 37° C. and 5% CO2 in a humidified atmosphere. After two hours cells were dissociated and seeded in 96 wells plates at a density of 25,000 cells per well and 90 μl culture medium. 10 μl of compounds to be tested were added 2 hours after seeding. Final concentration of DMSO was 1%. Cells were incubated in the presence of compounds for 24 hours after which expression of firefly luciferase reporter gene was quantified. Briefly, culture medium was removed and cells were lysed by addition of 100 μl of lysis buffer containing 125 mM Tris Phosphate ph 7.8, 10 mM EDTA, 5 mM DTT, 50% glycerol and 5% Triton. Plates were vortexed 10 min at 1300 rpm. Cell lysat was transferred in OpaqueWhite Assay 96 well Flat Bottom plates. 100 μl of luciferin solution 1× were added to each well. Luciferin solution contained 40 mM Tris Phosphate ph 7.8, 0.2 mM EDTA, 67 mM DTT, 2.14 mM MgCl2, 5.4 mM MgSO4, 4.7×10^−4 M luciferin, 5.3×10^−4 M ATP and 2.7×10^−4 M Acetyl co enzyme A. Luminescence was immediately measured with Berthold Microlumat Plus LB 96V luminometer with an integration of 0.5 sec. Inhibition was calculated using the formula: % inhibition=(1−(read/average max))*100. Average max=signal in absence of compound
(Reporter assays use an easily measured gene product as a stand-in for the process of interest.)

Data set [2] relates to HCV replicon Luc Neo ET in Huh-7 cells. The data set is described as follows: Replicon assay (Luc Neo ET replicon). It is filed as cell-based. As to conditions: Hepatitis C virus, 72 hours with compound, firefly luciferase reporter, read-out: EC50—Replicon LucneoET. How it is done: as §1
Replicon Luc Neo ET is a bicistronic expression constructs (Lohmann et al, 1999, Science 285, 110-113). In brief, the structural genes of the HCV genome were replaced by heterologous sequences; the gene encoding the neomycin phosphotransferase (NPT) and the internal ribosome entry site (IRES) of the encephalomyocarditis virus (EMCV). The bicistronic construct is therefore composed of the following elements: HCV-IRES nucleotides 1-389, the NPT gene, the EMCV-IRES directing translation of downstream HCV sequences from NS2 or NS3 up to the authentic 3′ end of the genome. HCV Polyprotein harbours the cell culture adaptive mutations E1202G, T1280I, K1846T. G418-resistance is only possible with cells containing high amounts of replicon.
Cells were dissociated the day before addition of compounds and seeded in 96 well-plates at a final concentration of 77 777.77 cells·ml^−1·well^−2 in 90 μl final volume of culture medium per well and were maintained at 37° C. and 5% CO2 in a humidified atmosphere for 24 hours. 10 μl of compounds to be tested were added 24 hours after seeding. Final concentration of DMSO was 1%. Cells were incubated in the presence of compounds for 72 hours after which expression of firefly luciferase reporter gene was quantified. Briefly, culture medium was removed and cells were lysed by addition of 100 μl of lysis buffer containing 125 mM Tris Phosphate ph 7.8, 10 mM EDTA, 5 mM DTT, 50% glycerol and 5% Triton. Plates were vortexed 10 min at 1300 rpm. Cell lysat was transferred in OpaqueWhite Assay 96 well Flat Bottom plates. 100 μl of luciferin solution 1× were added to each well. Luciferin solution contained 40 mM Tris Phosphate ph 7.8, 0.2 mM EDTA, 67 mM DTT, 2.14 mM MgCl2, 5.4 mM MgSO4, 4.7×10^−4 M luciferin, 5.3×10^−4 M ATP and 2.7×10^−4 M Acetyl co enzyme A. Luminescence was immediately measured with Berthold Microlumat Plus LB 96V luminometer with an integration of 0.5 sec Inhibition was calculated using the formula:
% inhibition=1−[(RLUsample−RLUbackground)/(RLUsignal−RLUbackground)]

Data set [3] has as its target T2, purified HCV NS5B with a deletion of the 21 C-terminal amino acids (Hepatitis C virus genotype 1b, UniProt Q9WMX2).
T2 construct: purified HCV NS5B with a deletion of the 21 C-terminal amino acids
The data set is described as follows: HCV NS5B RdRp enzyme assay. The class given is biochemical. As to conditions: read-out: inhibition (RdRp enzyme assay). The procedure:
The assay was performed in a total volume of 20 μl containing 20 mM Tris pH 7.5, 1 mM DTT, 17 U RNasin, 50 mM NaCl, 10% DMSO, 5 mM MgCl2, 0.5 mM each of the 3 NTPs (ATP, CTP, GTP), 86 nM RNA template (341 nt from the 3′ end of HCV minus strand RNA), 50 nM of purified HCV NS5B with a deletion of the 21 C-terminal amino acids and 2 μCi [^3H]UTP (46 Ci·mmol^−1). The reaction mixture was incubated for 2 h at 25-30° C. and the radio labeled products were precipitated by the addition of 10% TCA. The radioactivity incorporated was quantified by counting in a Wallac scintillation counter. Increasing concentrations of tested compounds were added to the complete RdRp reaction mixture. After a two hour incubation period at 25-30° C., the amount of labeled product was determined as above. Two types of control reactions were done: a negative control corresponding to the complete mixture without enzyme and a positive control with enzyme but without compounds. In each experiment, test and control samples are in duplicate.
The level of activity with each compound concentration was expressed with the formulae: […]
The IC50 value was calculated as the compound concentration reducing polymerase activity by 50%.

A word on the EC50: it is the concentration needed to bring the measured effect to its halfway point. In general, melting point refers to the temperature of the solid-liquid transition. As a reminder, the inhibition is the relative decrease from the control value, in per cent.

Regarding `Cc1ccc(C(=O)C2=C(O)C(=O)N(c3ncc(S(=O)(=O)c4ccc([N+](=O)[O-])cc4)s3)C2c2ccc(C(C)C)cc2)cc1` (stereo not shown) [Example 10], the EC50 amounted to 2 µM in data set [1] and 8 µM in data set [2].
`Cc1nnc(N2C(=O)C(O)=C(C(=O)c3ccc(C(C)C)cc3)C2c2ccc(OC(F)(F)F)cc2)s1` (stereo not shown) [Example 127, 3-hydroxy-4-(4-isopropyl-benzoyl)-1-(5-methyl-[1,3,4]thiadiazol-2-yl)-5-(4-trifluoromethoxy-phenyl)-1,5-dihydro-pyrrol-2-one] registered a melting point of 260 °C. Moreover, the EC50 in data set [1] is less than 1 µM. Besides, the EC50 in data set [2] is less than 1 µM.
For the compound `O=C(O)c1ccc(C2C(C(=O)c3ccco3)=C(O)C(=O)N2c2ncc(S(=O)(=O)c3ccc([N+](=O)[O-])cc3)s2)cc1` (stereo not shown) [Example 112, 4-{3-(furan-2-carbonyl)-4-hydroxy-1-[5-(4-nitro-benzenesulfonyl)-thiazol-2-yl]-5-oxo-2,5-dihydro-1H-pyrrol-2-yl}-benzoic acid], the EC50 in data set [1] and in data set [2] was less than 10 µM in each case.
For `Cc1cnc(N2C(=O)C(O)=C(C(=O)c3ccc(C(C)C)cc3)C2c2ccc(OC(F)(F)F)cc2)s1` (stereo not shown) [Example 130, 3-hydroxy-4-(4-isopropyl-benzoyl)-1-(5-methyl-thiazol-2-yl)-5-(4-trifluoromethoxy-phenyl)-1,5-dihydro-pyrrol-2-one], the melting point was in the range of 243 to 244 °C. The same compound gave an EC50 in data set [1] of less than 10 µM. Moreover, the EC50 in data set [2] is less than 10 µM.
Consider `COc1ccc(C(=O)C2=C(O)C(=O)N(c3nnc(C)s3)C2c2ccc(Cl)c(Cl)c2)cc1` (stereo not shown) [Example 31], for which, in data set [2], the EC50 came to 33 µM.
With `CCc1ccc(C2C(C(=O)c3ccco3)=C(O)C(=O)N2c2ncc(S(=O)(=O)c3ccc([N+](=O)[O-])cc3)s2)cc1` (stereo not shown) [Example 104, 5-(4-ethyl-phenyl)-4-(furan-2-carbonyl)-3-hydroxy-1-[5-(4-nitro-benzenesulfonyl)-thiazol-2-yl]-1,5-dihydro-pyrrol-2-one], the concentration giving a half-maximal response (EC50) in data set [1] and in data set [2] was less than 10 µM each time.
`CC(C)c1ccc(C(=O)C2=C(O)C(=O)N(c3ncc(S(=O)(=O)c4ccc([N+](=O)[O-])cc4)s3)C2c2ccc(OC(F)(F)F)cc2)cc1` (stereo not shown) [Example 125, 3-hydroxy-4-(4-isopropyl-benzoyl)-1-[5-(4-nitro-benzenesulfonyl)-thiazol-2-yl]-5-(4-trifluoromethoxy-phenyl)-1,5-dihydro-pyrrol-2-one]: the melting point lay within 276 to 278 °C. The EC50 in data set [1] was less than 10 µM. Also, the EC50 in data set [2] was less than 10 µM.
Regarding `CN(C)c1ccc(C(=O)C2=C(O)C(=O)N(c3ncc(S(=O)(=O)c4ccc([N+](=O)[O-])cc4)s3)C2c2ccc(C(C)(C)C)cc2)cc1` (stereo not shown) [Example 55, 5-(4-tert-butyl-phenyl)-4-(4-dimethylamino-benzoyl)-3-hydroxy-1-[5-(4-nitro-benzenesulfonyl)-thiazol-2-yl]-1,5-dihydro-pyrrol-2-one], the EC50 in data set [1] was 4 µM; in data set [2], 7 µM.
The matching figures for `Cc1ccc(C(=O)C2=C(O)C(=O)N(c3nnc(C)s3)C2c2ccc(C(C)C)cc2)cc1` (stereo not shown) [Example 54]: 13 µM and 11 µM.
The matching figures for `CC(C)(C)c1ccc(C2C(C(=O)c3ccc(Cl)cc3)=C(O)C(=O)N2c2ncc(S(=O)(=O)c3ccc([N+](=O)[O-])cc3)s2)cc1` (stereo not shown) [Example 40]: 5 µM and 28 µM.
On the same counts, the results for `COc1ccc(C(=O)C2=C(O)C(=O)N(c3nnc(C)s3)C2c2ccc(C(C)(C)C)cc2)cc1` (stereo not shown) [Example 3] are 7 µM and 15 µM.
Regarding `Cc1cnc(N2C(=O)C(O)=C(C(=O)c3ccc(C(C)C)cc3)C2c2ccc(C(F)(F)F)cc2)s1` (stereo not shown) [Example 129, 3-hydroxy-4-(4-isopropyl-benzoyl)-1-(5-methyl-thiazol-2-yl)-5-(4-trifluoromethyl-phenyl)-1,5-dihydro-pyrrol-2-one], the EC50 in data set [1] and in data set [2] was less than 10 µM each time.
In turn, `Cc1nnc(N2C(=O)C(O)=C(C(=O)c3ccc(C(C)C)cc3)C2c2ccc(C(F)(F)F)cc2)s1` (stereo not shown) [Example 128, 3-hydroxy-4-(4-isopropyl-benzoyl)-1-(5-methyl-[1,3,4]thiadiazol-2-yl)-5-(4-trifluoromethyl-phenyl)-1,5-dihydro-pyrrol-2-one] gave a melting point of 257 °C. Moreover, the EC50 in data set [1] is less than 1 µM. Also, the EC50 in data set [2] was less than 1 µM.
With `Cc1ccc(C(=O)C2=C(O)C(=O)N(c3ncc(S(=O)(=O)c4ccc([N+](=O)[O-])cc4)s3)C2c2ccc(C(C)(C)C)cc2)cc1` (stereo not shown) [Example 28], the EC50 in data set [1] was 2 µM; in data set [2], 4 µM. The inhibition at 10 µM in data set [3] was determined as 85%.
`Cc1ccc(C(=O)C2=C(O)C(=O)N(c3ncc(S(=O)(=O)c4ccc([N+](=O)[O-])cc4)s3)C2c2cccc(Cl)c2)cc1` (stereo not shown) [Example 51]: the EC50 in data set [1] was determined as 7 µM; in data set [2] it was 10 µM.
